Results reported in the NIST ThermoML archive (doi:10.1021/je300590v).

Assay: xn = mol fraction of the nth substance listed
Conditions: Vibrating tube method

O=O [oxygen] + O=C=O
mass density [kg/m3]
Conditions	x2 = 0.8512	x2 = 0.9558
273.15 K, 1001 kPa, Gas	20	21
273.15 K, 2001 kPa, Gas	41.9	44.5
273.15 K, 3000 kPa, Gas	68	–
273.15 K, 3001 kPa, Gas	–	74.2
273.15 K, 3600 kPa, Gas	–	97.6
273.15 K, 4001 kPa, Gas	101	–
273.15 K, 4400 kPa, Gas	121.1	–
273.15 K, 5101 kPa, Liquid	–	895
273.15 K, 6000 kPa, Liquid	–	902.5
273.15 K, 7001 kPa, Liquid	–	911.9
273.15 K, 8001 kPa, Liquid	–	920.4
273.15 K, 9001 kPa, Liquid	–	928.6
273.15 K, 9013 kPa, Liquid	798.3	–
273.15 K, 10001 kPa, Liquid	–	936
273.15 K, 10003 kPa, Liquid	811.5	–
273.15 K, 11001 kPa, Liquid	825.1	943.1
273.15 K, 12001 kPa, Liquid	837.4	949.6
273.15 K, 13001 kPa, Liquid	848.5	955.8
273.15 K, 14000 kPa, Liquid	858.7	961.5
273.15 K, 15002 kPa, Liquid	868.2	967.1
273.15 K, 16000 kPa, Liquid	877	–
273.15 K, 16001 kPa, Liquid	–	972.4
273.15 K, 17000 kPa, Liquid	–	977.6
273.15 K, 17003 kPa, Liquid	885.4	–
273.15 K, 18000 kPa, Liquid	892.9	–
273.15 K, 18001 kPa, Liquid	–	982.4
273.15 K, 19001 kPa, Liquid	–	987.2
273.15 K, 19039 kPa, Liquid	898.3	–
273.15 K, 20001 kPa, Liquid	–	991.7
283.15 K, 1000 kPa, Gas	–	21
283.15 K, 1002 kPa, Gas	19.2	–
283.15 K, 2000 kPa, Gas	–	43.2
283.15 K, 2001 kPa, Gas	39.7	–
283.15 K, 3000 kPa, Gas	63.3	–
283.15 K, 3001 kPa, Gas	–	69.8
283.15 K, 4000 kPa, Gas	–	103.9
283.15 K, 4001 kPa, Gas	91.1	–
283.15 K, 4700 kPa, Gas	–	139.4
283.15 K, 5000 kPa, Gas	125.7	–
283.15 K, 6001 kPa, Gas	175.6	–
283.15 K, 6200 kPa, Liquid	–	819
283.15 K, 7000 kPa, Liquid	–	835.3
283.15 K, 8001 kPa, Liquid	–	849.8
283.15 K, 9001 kPa, Liquid	–	862.8
283.15 K, 9610 kPa, Liquid	686.6	–
283.15 K, 10001 kPa, Liquid	699.4	873.8
283.15 K, 11001 kPa, Liquid	728.8	–
283.15 K, 11004 kPa, Liquid	–	884.1
283.15 K, 12000 kPa, Liquid	–	893.2
283.15 K, 12001 kPa, Liquid	751.4	–
283.15 K, 13000 kPa, Liquid	770.5	901.9
283.15 K, 14001 kPa, Liquid	786.6	–
283.15 K, 14002 kPa, Liquid	–	909.9
283.15 K, 15000 kPa, Liquid	800	917.3
283.15 K, 16001 kPa, Liquid	812.4	924.2
283.15 K, 17000 kPa, Liquid	–	930.8
283.15 K, 17001 kPa, Liquid	823.5	–
283.15 K, 18001 kPa, Liquid	–	937
283.15 K, 19001 kPa, Liquid	–	943
283.15 K, 20003 kPa, Liquid	–	948.7
293.15 K, 1000 kPa, Gas	–	22.8
293.15 K, 1001 kPa, Gas	18.7	–
293.15 K, 2000 kPa, Gas	38.1	–
293.15 K, 2002 kPa, Gas	–	42.6
293.15 K, 3001 kPa, Gas	59.8	66.2
293.15 K, 4001 kPa, Gas	84.6	95.2
293.15 K, 5000 kPa, Gas	–	132.4
293.15 K, 5003 kPa, Gas	113.5	–
293.15 K, 6001 kPa, Gas	–	190.2
293.15 K, 6002 kPa, Gas	148.8	–
293.15 K, 7000 kPa, Gas	194.6	–
293.15 K, 7402 kPa, Liquid	–	718
293.15 K, 8001 kPa, Gas	260.9	–
293.15 K, 8002 kPa, Liquid	–	747
293.15 K, 8600 kPa, Gas	316	–
293.15 K, 9001 kPa, Liquid	–	775.6
293.15 K, 9801 kPa, Fluid (supercritical or subcritical phases)	460.3	–
293.15 K, 10001 kPa, Fluid (supercritical or subcritical phases)	481.5	–
293.15 K, 10001 kPa, Liquid	–	797.4
293.15 K, 11001 kPa, Liquid	564.7	–
293.15 K, 11002 kPa, Liquid	–	813.9
293.15 K, 12001 kPa, Liquid	617.8	–
293.15 K, 12002 kPa, Liquid	–	828.6
293.15 K, 13000 kPa, Liquid	–	841.3
293.15 K, 13002 kPa, Liquid	657.7	–
293.15 K, 14000 kPa, Liquid	–	852.2
293.15 K, 14001 kPa, Liquid	686.2	–
293.15 K, 15001 kPa, Liquid	710.2	862.4
293.15 K, 16001 kPa, Liquid	730.8	871.6
293.15 K, 17000 kPa, Liquid	–	880.2
293.15 K, 17002 kPa, Liquid	747.7	–
293.15 K, 18000 kPa, Liquid	–	888.3
293.15 K, 19001 kPa, Liquid	–	895.9
293.15 K, 20000 kPa, Liquid	–	902.8

N#N [nitrogen] + O=C=O
mass density [kg/m3]
Conditions	x2 = 0.8785	x2 = 0.9873
273.15 K, 1001 kPa, Gas	22.5	21.9
273.15 K, 2000 kPa, Gas	43.7	–
273.15 K, 2001 kPa, Gas	–	46
273.15 K, 3001 kPa, Gas	69.6	76.9
273.15 K, 3480 kPa, Gas	–	98
273.15 K, 3902 kPa, Liquid	–	911.4
273.15 K, 4000 kPa, Liquid	–	911.6
273.15 K, 4001 kPa, Gas	104	–
273.15 K, 4100 kPa, Gas	108.6	–
273.15 K, 5001 kPa, Liquid	–	922.2
273.15 K, 6000 kPa, Liquid	–	930.9
273.15 K, 7000 kPa, Liquid	–	938.7
273.15 K, 8001 kPa, Liquid	–	946
273.15 K, 8401 kPa, Liquid	805	–
273.15 K, 9000 kPa, Liquid	–	952.8
273.15 K, 9001 kPa, Liquid	811.5	–
273.15 K, 10000 kPa, Liquid	–	959.2
273.15 K, 10001 kPa, Liquid	824	–
273.15 K, 11001 kPa, Liquid	–	965.2
273.15 K, 11003 kPa, Liquid	836	–
273.15 K, 12000 kPa, Liquid	847	970.8
273.15 K, 13001 kPa, Liquid	856.6	–
273.15 K, 13002 kPa, Liquid	–	976.3
273.15 K, 14000 kPa, Liquid	865.1	–
273.15 K, 14001 kPa, Liquid	–	981.5
273.15 K, 15001 kPa, Liquid	–	986.6
273.15 K, 15002 kPa, Liquid	873.4	–
273.15 K, 16000 kPa, Liquid	–	991.4
273.15 K, 16001 kPa, Liquid	880.8	–
273.15 K, 17000 kPa, Liquid	887.8	–
273.15 K, 17002 kPa, Liquid	–	996.1
273.15 K, 18000 kPa, Liquid	894.6	–
273.15 K, 18012 kPa, Liquid	–	1000.6
273.15 K, 19001 kPa, Liquid	900.7	–
273.15 K, 19011 kPa, Liquid	–	1004.8
273.15 K, 20000 kPa, Liquid	906.6	–
273.15 K, 20001 kPa, Liquid	–	1008.7
283.15 K, 1000 kPa, Gas	–	20.1
283.15 K, 1004 kPa, Gas	19.4	–
283.15 K, 2000 kPa, Gas	–	42.5
283.15 K, 2001 kPa, Gas	40.3	–
283.15 K, 3000 kPa, Gas	64.6	69.8
283.15 K, 4000 kPa, Gas	–	106.2
283.15 K, 4001 kPa, Gas	93.7	–
283.15 K, 4500 kPa, Gas	–	131.6
283.15 K, 5001 kPa, Gas	131.6	–
283.15 K, 5101 kPa, Liquid	–	841.4
283.15 K, 5600 kPa, Gas	170.5	–
283.15 K, 6001 kPa, Liquid	–	857.5
283.15 K, 7000 kPa, Liquid	–	870.7
283.15 K, 8000 kPa, Liquid	–	882.2
283.15 K, 9001 kPa, Liquid	708.8	892.5
283.15 K, 10001 kPa, Liquid	–	901.7
283.15 K, 10002 kPa, Liquid	736.1	–
283.15 K, 11001 kPa, Liquid	757.6	910.2
283.15 K, 12000 kPa, Liquid	775.3	–
283.15 K, 12001 kPa, Liquid	–	918
283.15 K, 13000 kPa, Liquid	–	925.4
283.15 K, 13002 kPa, Liquid	790.5	–
283.15 K, 14000 kPa, Liquid	–	932.2
283.15 K, 14001 kPa, Liquid	803.8	–
283.15 K, 15001 kPa, Liquid	–	938.7
283.15 K, 15002 kPa, Liquid	815.4	–
283.15 K, 16001 kPa, Liquid	825.4	944.9
283.15 K, 17000 kPa, Liquid	835	–
283.15 K, 17001 kPa, Liquid	–	950.9
283.15 K, 18000 kPa, Liquid	843.9	–
283.15 K, 18003 kPa, Liquid	–	956.5
283.15 K, 19001 kPa, Liquid	852.1	–
283.15 K, 19002 kPa, Liquid	–	961.9
283.15 K, 20001 kPa, Liquid	859.6	967
293.15 K, 1000 kPa, Gas	–	18.4
293.15 K, 1001 kPa, Gas	18.8	–
293.15 K, 2000 kPa, Gas	38.4	39.5
293.15 K, 3000 kPa, Gas	60.8	–
293.15 K, 3001 kPa, Gas	–	64.3
293.15 K, 4001 kPa, Gas	86.7	94.5
293.15 K, 5000 kPa, Gas	117.2	135.5
293.15 K, 5700 kPa, Gas	–	180.8
293.15 K, 6000 kPa, Gas	156.7	–
293.15 K, 6300 kPa, Liquid	–	750.2
293.15 K, 7000 kPa, Liquid	–	775
293.15 K, 7002 kPa, Gas	213.8	–
293.15 K, 7601 kPa, Gas	271.4	–
293.15 K, 8001 kPa, Liquid	–	799.6
293.15 K, 9000 kPa, Liquid	–	818.4
293.15 K, 9401 kPa, Liquid	526.3	–
293.15 K, 10000 kPa, Liquid	–	833.7
293.15 K, 10001 kPa, Liquid	579.5	–
293.15 K, 11001 kPa, Liquid	633.1	–
293.15 K, 11002 kPa, Liquid	–	846.8
293.15 K, 12001 kPa, Liquid	–	858.3
293.15 K, 12002 kPa, Liquid	669.7	–
293.15 K, 13000 kPa, Liquid	696.3	868.3
293.15 K, 14000 kPa, Liquid	–	877.6
293.15 K, 14001 kPa, Liquid	718.1	–
293.15 K, 15001 kPa, Liquid	736.4	886.2
293.15 K, 16001 kPa, Liquid	752.3	–
293.15 K, 16002 kPa, Liquid	–	894.2
293.15 K, 17000 kPa, Liquid	766.2	–
293.15 K, 17001 kPa, Liquid	–	901.7
293.15 K, 18000 kPa, Liquid	778.4	–
293.15 K, 18001 kPa, Liquid	–	908.6
293.15 K, 19001 kPa, Liquid	789.6	915.2
293.15 K, 20000 kPa, Liquid	799.8	–
293.15 K, 20001 kPa, Liquid	–	921.4
